± gives the expanded uncertainty stated by the source.

These results are taken from the NIST ThermoML archive (doi:10.1021/je400544h).

For the data set the following is noted: Liquid, Ebulliometric method (Recirculating still).

In general, vapor or sublimation pressure refers to the equilibrium pressure above the liquid or solid. In the case of `FC(F)(F)C(Cl)(Cl)Cl` [1,1,1-trichloro-2,2,2-trifluoroethane], under “319.15 K”, the “vapor or sublimation pressure” value amounted to 101.3 ± 2 kPa. For `CC(C)=O` [acetone], the “vapor or sublimation pressure” value (329.37 K) stood at 101.3 ± 1.8 kPa. As to `CCO` [ethanol], where the note is “351.45 K”, the “vapor or sublimation pressure” value is recorded as 101.3 ± 1.8 kPa. As to `O=S(=O)(Cl)Cl` [sulfuryl chloride], where the note is “342.6 K”, the “vapor or sublimation pressure” value turned out to be 101.3 ± 2 kPa.
